Experimental data reported in patent US20240148679A1, “METHODS AND COMPOSITIONS RELATED TO TREATMENT AND PREVENTION OF CANCER BY INHIBITION OF DGAT1 AND DGAT2” (Ohio State Innovation Foundation, priority 2019, published 2024).
Entries after “also recorded” stand apart in the source; their conditions may differ.

Tests used:
Format in all cases: cell-based, human
GBM cells = assay: GBM cell death, trypan blue counting; settings: for cell death caused by DGAT1 inhibition (rescue): co-treatment with DGAT1 inhibition (A-922500 20 μg/ml, 3 days), U251
GBM cells (U251) = assay: ROS detection with CellROX Deep Red; settings: co-treatment (NAC 1 mM; ETO 6 μM) with DGAT1 inhibition
Experimental: (A, B) Transmission electron microscopy (TEM) analysis of the mitochondrial morphology in GBM cells (U251) treated with the DGAT1 inhibitor A-922500 (20 μg/ml) or DGAT2 inhibitor PF-06424439 (20 μg/ml) for 24 hr and shown in a or infected with shRNA-expressing lentivirus against DGAT1 for 48 hr and shown in b. Scale bar, 500 nm. Mitochondria are indicated by red arrows. Mitochondria length and loss of cristae (%) were quantified by ImageJ over 100 mitochondria in each group (mean±SEM). Statistical significance was determined by one-way ANOVA. * P<0.0001. (C, D) Representative fluorescence images of LDs (green) and mitochondria (red) in U251 cells treated with DGAT1 or DGAT2 inhibitor and shown in c or shRNA in (D) as in panels (A, B). […] The percentage of cells with tubular or fragmented mitochondria was quantified by ImageJ in more than 100 cells (mean±SEM). Statistical significance was determined by one-way ANOVA. * P<0.001. […] Lower panels show the quantification of relative basal and maximal OCR change (details please see Methods). […] Basal OCR was determined as OCR before oligomycin subtract OCR after rotenone addition, and maximal OCR was determined as OCR after FCCP subtract OCR after rotenone addition. Statistical significance was determined by one-way ANOVA. * P<0.0001. […] ROS were detected with CellROX Deep Red, and mitochondria were stained with MitoTracker Green. […]

liver cancer cells = assay: Liver cancer cell death with DGAT1 and DGAT2 inhibitors alone or in combination
Experimental: MHCC97L 6×10^4 12 well plate, treated at 24 hours with 1% FBS DMEM with DGAT1 and DGAT2 inhibitors. Picture taken on day 4.
HEPG2 6×10^4 12 well plate, treated at 24 hours with 1% FBS DMEM with DGAT1 and DGAT2 inhibitors. Picture taken on day 4.
HeG2 8×10^4 12 well plate, treated at 24 hours with 1% FBS DMEM with DGAT1 and DGAT2 inhibitors. Picture taken on day 4.
Huh7 4×10^4 12-well plate, treated at 24 hours with 1% FBS DMEM with DGAT1 and DGAT2 inhibitors. Picture taken on day 4.
Hep3B 6×10^4 12-well plate, treated at 24 hours with 1% FBS DMEM with DGAT1 and DGAT2 inhibitors. Picture taken on day 4.
Huh7 6×10^4 12-well plate, treated at 24 hours with 1% FBS DMEM with DGAT1 and DGAT2 inhibitors. Picture taken on day 4.

[1] = DGAT1 inhibitor in combination with DGAT2 inhibitor

In the case of `CCCCCCC(=O)CCCCCC/C=C/C[C@@H](O)[C@H](O)[C@@](N)(CO)C(=O)O` [myriocin], the “cell death caused by DGAT1 inhibition (rescue)” value (GBM cells) is reported as “no rescue effects; also recorded: does not rescue cell death”.
For `CC(=O)N[C@@H](CS)C(=O)O` [NAC, N-acetyl-cysteine], the “acylcarnitine-induced GBM cell death” value (GBM cells; NAC 1 mM with acylcarnitines 20 μM, 2 days) was “significantly reduced”, the “cell death caused by DGAT1 inhibition (rescue)” value (GBM cells) was “significantly decreased” and the “ROS caused by DGAT1 inhibition” value (GBM cells (U251)) was “significantly decreased”.
For `O=C(O)C[C@H]1CC[C@H](c2ccc(-c3ccc(Nc4ccc(C(F)(F)F)nc4)cn3)cc2)CC1` [Pradigastat], the “liver cancer cell death” value (liver cancer cells; [1]) was “effective to kill liver cancer cells” and the “liver cancer cell death” value (liver cancer cells; each single inhibitor) was “no ability to induce liver cancer cell death”.
In the case of `N#Cc1ccc(Oc2ccc(/C=C3\SC(=NCCc4ccccn4)NC3=O)cc2F)c(Br)c1` [JNJ DGAT2-A], the “liver cancer cell death” value (liver cancer cells; [1]) is reported as “effective to kill liver cancer cells” and the “liver cancer cell death” value (liver cancer cells; each single inhibitor) is reported as “no ability to induce liver cancer cell death”.
For `Cc1cc(=O)oc2c(C=O)c(O)ccc12` [4μ8C], the “cell death caused by DGAT1 inhibition (rescue)” value (GBM cells) was “did not exert any rescue effects; also recorded: No rescue effects”.
`CCOC(=O)[C@@]1(CCCCCCOc2ccc(Cl)cc2)CO1` [ETO] was tested, and the “cell death caused by DGAT1 inhibition (rescue)” value (GBM cells) was “significantly reduced” and the “ROS caused by DGAT1 inhibition” value (GBM cells (U251)) was “significantly reduced”.
For `Cc1cccc(CC(=O)N2CCc3c2ccc(-c2cn(C)c4ncnc(N)c24)c3F)n1` [GSK2656157], the “cell death caused by DGAT1 inhibition (rescue)” value (GBM cells) was “did not exert any rescue effects; also recorded: No rescue effects”.
